Reference: ChEMBL document CHEMBL2073757, “Effect of flavonoids on MRP1-mediated transport in Panc-1 cells” (J Pharm Sci, 2003)

Key:
Type in all cases: functional, cell-based
[1] = target: T1, Multidrug resistance-associated protein 1 (Homo sapiens, UniProt P33527); assay: TP_TRANSPORTER: increase in Vinblastine intracellular accumulation (Vinblastine: 0.05 uM, BiochaninA: 101 uM) in Panc-1 cells; settings: panc-1, 101 µM
[2] = target: T1, Multidrug resistance-associated protein 1; assay: TP_TRANSPORTER: increase in Daunomycin intracellular accumulation (Daunomycin: 0.05 uM, BiochaninA: 100 uM) in Panc-1 cells; settings: panc-1, 100 µM
[3] = target: T1, Multidrug resistance-associated protein 1; assay: TP_TRANSPORTER: increase in Vinblastine intracellular accumulation (Vinblastine: 0.05 uM, Chrysin: 100 uM) in Panc-1 cells; settings: panc-1, 100 µM
[4] = target: T1, Multidrug resistance-associated protein 1; assay: TP_TRANSPORTER: increase in Daunomycin intracellular accumulation (Daunomycin: 0.05 uM, Chrysin: 100 uM) in Panc-1 cells; settings: panc-1, 100 µM
[5] = target: T1, Multidrug resistance-associated protein 1; assay: TP_TRANSPORTER: increase in Daunomycin intracellular accumulation (Daunomycin: 0.05 uM, Genistein: 100 uM) in Panc-1 cells; settings: panc-1, 100 µM
[6] = target: T1, Multidrug resistance-associated protein 1; assay: TP_TRANSPORTER: increase in Vinblastine intracellular accumulation (Vinblastine: 0.05 uM, Genistein: 100 uM) in Panc-1 cells; settings: panc-1, 100 µM
[7] = target: T1, Multidrug resistance-associated protein 1; assay: TP_TRANSPORTER: increase in Daunomycin intracellular accumulation (Daunomycin: 0.05 uM, Morin: 100 uM) in Panc-1 cells; settings: panc-1, 100 µM
[8] = target: T1, Multidrug resistance-associated protein 1; assay: TP_TRANSPORTER: increase in Vinblastine intracellular accumulation (Vinblastine: 0.05 uM, Morin: 100 uM) in Panc-1 cells; settings: panc-1, 100 µM
[9] = target: T1, Multidrug resistance-associated protein 1; assay: TP_TRANSPORTER: increase in Vinblastine intracellular accumulation (Vinblastine: 0.05 uM, Phloretin: 100 uM) in PANC-1 cells; settings: panc-1, 100 µM
[10] = target: T1, Multidrug resistance-associated protein 1; assay: TP_TRANSPORTER: increase in Daunomycin intracellular accumulation (Daunomycin: 0.05 uM, Phloretin: 100 uM) in PANC-1 cells; settings: panc-1, 100 µM
[11] = target: T1, Multidrug resistance-associated protein 1; assay: TP_TRANSPORTER: increase in Vinblastine intracellular accumulation (Vinblastine: 0.05 uM, Silymarin: 100 uM) in Panc-1 cells; settings: panc-1, 100 µM
[12] = target: T1, Multidrug resistance-associated protein 1; assay: TP_TRANSPORTER: increase in Daunomycin intracellular accumulation (Daunomycin: 0.05 uM, Silymarin: 100 uM) in Panc-1 cells; settings: panc-1, 100 µM

T1 sequence (P33527 whole entry): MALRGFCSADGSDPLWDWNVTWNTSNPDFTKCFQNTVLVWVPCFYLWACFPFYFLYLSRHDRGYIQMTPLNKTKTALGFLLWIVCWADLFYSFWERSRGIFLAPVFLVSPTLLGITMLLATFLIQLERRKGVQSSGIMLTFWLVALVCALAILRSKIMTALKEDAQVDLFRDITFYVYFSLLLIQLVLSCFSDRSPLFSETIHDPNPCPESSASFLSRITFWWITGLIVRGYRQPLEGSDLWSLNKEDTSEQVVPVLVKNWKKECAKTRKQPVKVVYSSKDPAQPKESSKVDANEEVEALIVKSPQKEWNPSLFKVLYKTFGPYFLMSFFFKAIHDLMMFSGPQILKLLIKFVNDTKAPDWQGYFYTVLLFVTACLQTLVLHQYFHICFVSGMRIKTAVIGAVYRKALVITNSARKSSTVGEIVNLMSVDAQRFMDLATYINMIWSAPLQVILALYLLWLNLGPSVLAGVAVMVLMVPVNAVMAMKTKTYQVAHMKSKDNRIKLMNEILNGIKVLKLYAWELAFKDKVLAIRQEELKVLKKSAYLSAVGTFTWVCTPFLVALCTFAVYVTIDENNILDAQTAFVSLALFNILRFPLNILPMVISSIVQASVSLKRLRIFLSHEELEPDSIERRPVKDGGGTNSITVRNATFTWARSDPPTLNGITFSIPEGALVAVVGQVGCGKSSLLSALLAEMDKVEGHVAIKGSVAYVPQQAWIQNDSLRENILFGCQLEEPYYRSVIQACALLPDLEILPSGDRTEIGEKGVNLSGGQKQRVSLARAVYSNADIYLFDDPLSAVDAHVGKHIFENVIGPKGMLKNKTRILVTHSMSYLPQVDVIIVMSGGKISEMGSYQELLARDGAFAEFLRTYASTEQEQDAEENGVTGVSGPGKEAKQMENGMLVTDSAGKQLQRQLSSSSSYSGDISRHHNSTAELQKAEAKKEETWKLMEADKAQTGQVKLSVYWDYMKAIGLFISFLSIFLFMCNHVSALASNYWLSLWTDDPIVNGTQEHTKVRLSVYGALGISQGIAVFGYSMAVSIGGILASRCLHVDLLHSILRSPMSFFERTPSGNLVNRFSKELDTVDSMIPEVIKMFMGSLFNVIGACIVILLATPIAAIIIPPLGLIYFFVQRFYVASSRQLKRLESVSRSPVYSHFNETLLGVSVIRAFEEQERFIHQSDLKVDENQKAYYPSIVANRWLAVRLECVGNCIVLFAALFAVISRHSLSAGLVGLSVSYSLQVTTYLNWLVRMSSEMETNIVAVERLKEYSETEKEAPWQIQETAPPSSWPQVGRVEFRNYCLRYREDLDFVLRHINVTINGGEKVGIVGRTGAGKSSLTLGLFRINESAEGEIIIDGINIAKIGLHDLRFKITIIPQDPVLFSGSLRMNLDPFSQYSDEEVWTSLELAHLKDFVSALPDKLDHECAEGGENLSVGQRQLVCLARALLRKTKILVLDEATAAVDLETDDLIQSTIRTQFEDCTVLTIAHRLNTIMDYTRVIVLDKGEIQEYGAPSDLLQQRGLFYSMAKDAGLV

COc1ccc(-c2coc3cc(O)cc(O)c3c2=O)cc1 [BIOCHANIN]
Activity [1]: 330%
Activity [2]: 178%

O=c1cc(-c2ccccc2)oc2cc(O)cc(O)c12 [CHRYSIN]
Activity [3]: 180%
Activity [4]: 198%

O=c1c(-c2ccc(O)cc2)coc2cc(O)cc(O)c12 [GENISTEIN]
Activity [5]: 156%
Activity [6]: 191%

O=c1c(O)c(-c2ccc(O)cc2O)oc2cc(O)cc(O)c12 [MORIN]
Activity [7]: 546%
Activity [8]: 553%

O=C(CCc1ccc(O)cc1)c1c(O)cc(O)cc1O [PHLORETIN]
Activity [9]: 251%
Activity [10]: 295%

SILYMARIN
Activity [11]: 329%
Activity [12]: 305%
